Results taken from US8039639B2, “Kinase inhibitors and methods of use thereof” (Array BioPharma Inc., priority 2006, dated 2011).
Where two headings read alike, the source gives them in different places.

Legend:
RPMI 8226 = RPMI 8226 cell viability (CellTiter Blue); format: cell-based; details: RPMI 8226, 72 hours
Procedure: Cell viability was then measured using CellTiter Blue (Promega) to determine IC50 values for each compound (Table 8). […] MG-132 produced an IC50 that was within historical ranges of in-house testing (Table 8).

CYP1A2 = CYP1A2 (Homo sapiens, UniProt P05177); assay: CYP inhibition assay (fluorescent probe, recombinant protein); format: in vitro ADME; details: n=1
CYP1A2, sequence (P05177 whole entry, species assumed): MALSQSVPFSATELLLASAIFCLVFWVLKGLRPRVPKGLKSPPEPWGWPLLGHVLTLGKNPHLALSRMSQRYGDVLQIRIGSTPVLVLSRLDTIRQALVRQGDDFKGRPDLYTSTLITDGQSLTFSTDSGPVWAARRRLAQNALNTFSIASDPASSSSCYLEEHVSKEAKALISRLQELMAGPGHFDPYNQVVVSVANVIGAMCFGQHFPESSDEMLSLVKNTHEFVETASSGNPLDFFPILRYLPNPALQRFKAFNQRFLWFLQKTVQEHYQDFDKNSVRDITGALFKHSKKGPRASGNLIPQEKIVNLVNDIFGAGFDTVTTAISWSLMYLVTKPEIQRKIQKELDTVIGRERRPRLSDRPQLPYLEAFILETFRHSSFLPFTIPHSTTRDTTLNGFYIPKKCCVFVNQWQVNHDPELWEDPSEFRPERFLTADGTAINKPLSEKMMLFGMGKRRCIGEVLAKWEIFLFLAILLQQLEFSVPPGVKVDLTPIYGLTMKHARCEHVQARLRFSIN

Abl (T315I) = Abl (T315I) (Homo sapiens, UniProt P00519, T315I); assay: protein kinase IC50 determination (ATP at Km); format: biochemical; details: ATP concentration at Km
RPMI 8226 cells = assay: RPMI 8226 multiple myeloma tumor model; format: in vivo, Female Scid-beige mice
Procedure: Female Scid-beige mice (17-20 g), n=8 per group, were implanted with 15×10^6 RPMI 8226 cells subcutaneously on the right flank with either vehicle (20% Trappsol, 10 mL/kg, PO, BID×14) or Compound 74 (100 mg/kg active drug, PO, BID×14). Test compounds were administered by oral gavage at the indicated doses and schedules when tumors reached 200±50 mm^3 in size.

VEGFR = VEGFR (Homo sapiens, UniProt P35968); assay: protein kinase IC50 determination (ATP at Km); format: biochemical; details: ATP concentration at Km
VEGFR, sequence (P35968 20-1356): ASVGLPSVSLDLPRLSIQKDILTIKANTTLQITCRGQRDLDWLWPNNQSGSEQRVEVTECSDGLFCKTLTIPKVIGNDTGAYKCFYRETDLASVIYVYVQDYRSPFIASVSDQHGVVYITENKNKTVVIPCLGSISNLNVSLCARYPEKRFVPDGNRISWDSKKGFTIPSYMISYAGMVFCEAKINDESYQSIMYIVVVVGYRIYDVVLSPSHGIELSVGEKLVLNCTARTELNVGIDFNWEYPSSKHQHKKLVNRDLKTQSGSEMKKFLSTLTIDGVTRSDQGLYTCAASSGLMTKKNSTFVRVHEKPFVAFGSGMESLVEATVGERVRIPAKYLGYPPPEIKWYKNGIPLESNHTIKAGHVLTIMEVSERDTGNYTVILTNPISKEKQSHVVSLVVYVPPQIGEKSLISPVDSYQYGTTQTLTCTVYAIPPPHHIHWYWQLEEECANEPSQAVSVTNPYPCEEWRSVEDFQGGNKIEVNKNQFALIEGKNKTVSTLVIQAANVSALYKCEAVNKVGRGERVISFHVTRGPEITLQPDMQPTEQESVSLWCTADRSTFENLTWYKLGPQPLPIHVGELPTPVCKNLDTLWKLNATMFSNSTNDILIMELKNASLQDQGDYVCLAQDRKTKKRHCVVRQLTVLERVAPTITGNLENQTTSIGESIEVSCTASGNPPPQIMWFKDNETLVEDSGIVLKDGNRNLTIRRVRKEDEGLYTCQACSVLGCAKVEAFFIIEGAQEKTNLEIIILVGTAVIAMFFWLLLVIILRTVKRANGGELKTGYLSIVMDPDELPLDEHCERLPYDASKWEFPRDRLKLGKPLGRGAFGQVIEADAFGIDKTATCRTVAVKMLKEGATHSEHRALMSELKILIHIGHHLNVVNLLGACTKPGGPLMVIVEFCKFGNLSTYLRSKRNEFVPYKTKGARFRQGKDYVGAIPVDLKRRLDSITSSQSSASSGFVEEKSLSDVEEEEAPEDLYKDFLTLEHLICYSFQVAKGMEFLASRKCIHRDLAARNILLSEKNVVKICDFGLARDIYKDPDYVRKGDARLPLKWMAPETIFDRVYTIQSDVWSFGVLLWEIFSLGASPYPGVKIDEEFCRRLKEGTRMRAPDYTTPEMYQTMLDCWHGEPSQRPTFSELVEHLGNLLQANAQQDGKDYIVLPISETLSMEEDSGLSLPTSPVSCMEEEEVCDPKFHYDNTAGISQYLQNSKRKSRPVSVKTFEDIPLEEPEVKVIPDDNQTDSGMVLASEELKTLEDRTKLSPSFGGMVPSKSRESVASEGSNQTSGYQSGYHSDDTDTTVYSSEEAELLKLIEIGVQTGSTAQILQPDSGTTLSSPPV

[1] = Pharmacokinetics in monkey; format: in vivo, male Cynomologus monkeys
Excerpt: Non-compartmental (model independent) methods were used to analyze the plasma concentration time-curves derived from all species as described below. Clearance (Cl), calculated percent extraction ratios (ER %), volume of distribution (Vz), time to […] (t1/2) and exposure (AUC, area under the curve) values are provided below for mouse, rat, and monkey, respectively.
3. […] Blood was sampled at the same time points as listed for the Mouse PK study.

Tie2 = Tie2 (Homo sapiens, UniProt Q02763); assay: protein kinase IC50 determination (ATP at Km); format: biochemical; details: ATP concentration at Km
Tie2, sequence (Q02763 23-1124, species assumed): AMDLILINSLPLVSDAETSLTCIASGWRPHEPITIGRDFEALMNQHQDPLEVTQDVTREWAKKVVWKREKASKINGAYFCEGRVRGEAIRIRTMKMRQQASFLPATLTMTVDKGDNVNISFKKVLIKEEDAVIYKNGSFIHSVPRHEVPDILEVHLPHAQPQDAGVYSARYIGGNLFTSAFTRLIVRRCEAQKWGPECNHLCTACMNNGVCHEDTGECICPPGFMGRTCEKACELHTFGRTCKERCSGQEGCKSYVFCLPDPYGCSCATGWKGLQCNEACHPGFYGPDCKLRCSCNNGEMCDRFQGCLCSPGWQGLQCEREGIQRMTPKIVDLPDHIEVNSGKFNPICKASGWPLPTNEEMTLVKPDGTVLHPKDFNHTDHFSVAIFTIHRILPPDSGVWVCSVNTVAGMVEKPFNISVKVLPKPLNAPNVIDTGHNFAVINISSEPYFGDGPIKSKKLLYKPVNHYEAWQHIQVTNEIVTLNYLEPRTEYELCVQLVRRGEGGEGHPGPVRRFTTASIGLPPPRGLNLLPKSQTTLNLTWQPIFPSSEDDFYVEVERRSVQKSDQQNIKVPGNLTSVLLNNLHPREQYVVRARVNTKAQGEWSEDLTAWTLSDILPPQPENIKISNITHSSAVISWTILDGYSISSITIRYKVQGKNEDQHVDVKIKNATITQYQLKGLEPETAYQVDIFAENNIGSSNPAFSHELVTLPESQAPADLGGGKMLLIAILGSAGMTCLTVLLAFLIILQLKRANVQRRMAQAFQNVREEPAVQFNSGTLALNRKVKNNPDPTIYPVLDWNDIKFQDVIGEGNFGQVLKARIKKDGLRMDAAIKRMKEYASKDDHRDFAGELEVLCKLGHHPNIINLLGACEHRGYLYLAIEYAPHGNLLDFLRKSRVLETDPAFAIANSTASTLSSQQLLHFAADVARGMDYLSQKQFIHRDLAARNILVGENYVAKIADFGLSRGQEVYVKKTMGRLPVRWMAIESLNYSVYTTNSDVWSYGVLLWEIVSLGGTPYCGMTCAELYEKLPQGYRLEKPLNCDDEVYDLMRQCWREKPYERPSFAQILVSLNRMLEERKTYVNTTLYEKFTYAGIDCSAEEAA

Hck = Hck (Homo sapiens, UniProt P08631); assay: protein kinase IC50 determination (ATP at Km); format: biochemical; details: ATP concentration at Km
Hck, sequence (P08631 whole entry, species assumed): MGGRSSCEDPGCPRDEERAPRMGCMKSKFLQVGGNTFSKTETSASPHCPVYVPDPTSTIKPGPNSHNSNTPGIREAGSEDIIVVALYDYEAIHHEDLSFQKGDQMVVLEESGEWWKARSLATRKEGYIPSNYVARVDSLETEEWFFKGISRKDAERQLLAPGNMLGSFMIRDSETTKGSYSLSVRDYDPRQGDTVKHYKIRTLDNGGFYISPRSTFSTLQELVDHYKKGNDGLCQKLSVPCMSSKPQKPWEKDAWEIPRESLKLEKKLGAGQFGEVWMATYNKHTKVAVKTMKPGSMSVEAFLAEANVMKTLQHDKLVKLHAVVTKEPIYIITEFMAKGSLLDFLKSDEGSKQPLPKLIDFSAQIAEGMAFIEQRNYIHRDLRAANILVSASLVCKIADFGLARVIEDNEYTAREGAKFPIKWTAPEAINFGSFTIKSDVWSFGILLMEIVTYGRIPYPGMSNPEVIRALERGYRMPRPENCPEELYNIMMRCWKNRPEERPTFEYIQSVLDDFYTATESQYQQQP

[2] = tested on: Collagen Induced Arthritis (CIA); assay: Rat model of collagen induced arthritis (CIA); format: in vivo, Female Lewis rats; details: BID×7, dosed as prodrug Compound 74; for ED50: PO
Procedure: Female Lewis rats (200 g); n=8 per treatment group were injected with type II collagen/Freund's incomplete adjuvant (300 μL injection of 0.6 mg collagen, dorsal surface Day 0 and Day 6). […] ENBREL® served as a positive control. Compounds were administered on days 11-18. Ankle diameter was measured at day 11 and every day thereafter (FIG. 70). At study end paw weight and microscopic histology were determined. Both hind paws and knees were removed, hind paws weighed and then placed, with knees, in formalin. Following 1-2 days in fixative and 4-5 days in decalcifier, ankle joints and knees were processed, embedded, sectioned and stained with toluidine blue. Ankles and knees were given scores of 0-5 for inflammation, pannus formation and bone resorption.

Arg = Arg (Homo sapiens, UniProt P42684); assay: protein kinase IC50 determination (ATP at Km); format: biochemical; details: ATP concentration at Km
CYP2D6 = CYP2D6 (Homo sapiens, UniProt P10635); assay: CYP inhibition assay (fluorescent probe, recombinant protein); format: in vitro ADME; details: n=1
CYP2D6, sequence (P10635 whole entry, species assumed): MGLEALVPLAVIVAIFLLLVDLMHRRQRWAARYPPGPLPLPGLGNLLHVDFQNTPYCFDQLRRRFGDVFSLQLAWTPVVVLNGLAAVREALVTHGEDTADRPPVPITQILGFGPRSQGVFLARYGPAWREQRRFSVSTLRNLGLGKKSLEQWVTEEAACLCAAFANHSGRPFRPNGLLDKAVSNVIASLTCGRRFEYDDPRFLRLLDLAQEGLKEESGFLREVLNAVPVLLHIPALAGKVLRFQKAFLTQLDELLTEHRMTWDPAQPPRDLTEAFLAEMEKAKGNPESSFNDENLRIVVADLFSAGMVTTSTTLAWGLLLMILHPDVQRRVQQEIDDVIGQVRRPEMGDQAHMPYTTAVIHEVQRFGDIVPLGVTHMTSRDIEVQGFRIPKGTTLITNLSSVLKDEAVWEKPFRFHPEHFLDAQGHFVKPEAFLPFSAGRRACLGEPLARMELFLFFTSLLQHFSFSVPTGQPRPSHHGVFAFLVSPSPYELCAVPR

CYP2C9 = biological target: T1, CYP2C9 (Homo sapiens, UniProt P11712); assay: CYP inhibition assay (LC/MS, pooled human liver microsomes); format: in vitro ADME; details: n=1
T1 construct: using pooled human liver microsomes (n=1); from tissue; host or cells: pooled human liver microsomes
T1 sequence (P11712 whole entry): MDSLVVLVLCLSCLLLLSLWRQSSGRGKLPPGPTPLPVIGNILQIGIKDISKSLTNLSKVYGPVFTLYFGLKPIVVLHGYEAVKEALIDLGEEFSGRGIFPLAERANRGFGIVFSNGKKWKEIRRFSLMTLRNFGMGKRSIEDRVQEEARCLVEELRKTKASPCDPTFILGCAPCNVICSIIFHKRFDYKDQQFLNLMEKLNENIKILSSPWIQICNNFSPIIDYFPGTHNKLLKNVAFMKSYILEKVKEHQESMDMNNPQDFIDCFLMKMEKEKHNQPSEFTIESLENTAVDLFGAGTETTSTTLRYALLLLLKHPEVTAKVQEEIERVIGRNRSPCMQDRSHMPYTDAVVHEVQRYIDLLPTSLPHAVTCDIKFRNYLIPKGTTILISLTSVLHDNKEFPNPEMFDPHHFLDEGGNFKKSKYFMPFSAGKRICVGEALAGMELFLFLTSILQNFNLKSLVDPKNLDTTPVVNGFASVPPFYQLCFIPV

[3] = tested on: bFGF-induced angiogenesis; assay: bFGF matrigel plug angiogenesis in vivo; design: species or system Female CD-1 mice; details: PO, BID×7, dosed as prodrug Compound 74
Procedure: Female CD-1 mice (19-22 g), n=4 per treatment group, were implanted subcutaneously with 500 μL growth factor reduced matrigel containing 1500 ng/mL bFGF or 0 ng/mL bFGF as a negative control. Test compounds were administered by oral gavage at the indicated doses and schedules. […] Sutent is an inhibitor of KDRand served as a positive drug control in this study. Animals were euthanized on day 7. Matrigel was harvested, weighed and homogenized in phosphate buffered saline, pH 7.4. Samples were centrifuged and the resulting lysate analyzed for hemoglobin concentration by colorimetric reaction.

Compound: Cc1ccc(-n2nc(C(C)(C)C)cc2NC(=O)NCc2cc(F)ccc2Oc2ccc3c(cnn3CCO)c2)cc1 [Compound 72, 1-(3-tert-butyl-1-p-tolyl-1H-pyrazol-5-yl)-3-(5-fluoro-2-(1-(2-hydroxyethyl)-1H-indazol-5-yloxy)benzyl)urea]
- IC50 (RPMI 8226; Homo sapiens, read-out: Proliferation IC50): > 10 µM
- anti-proliferative effect (RPMI 8226; over the indicated concentration range): not anti-proliferative
- IC50 (CYP1A2): 25 µM
- IC50 (Abl (T315I)): 0.068 µM
- body weight loss (RPMI 8226 cells; RPMI 8226 tumor-bearing Scid-beige mice, throughout treatment): less than 10%
- effect on tumor growth (RPMI 8226 cells; RPMI 8226 tumors, 100 mg/kg PO, BID×14, dosed as Compound 74): statistically significant effect on tumor growth
- % Tumor growth inhibition (TGI) (RPMI 8226 cells; RPMI 8226 tumors, 100 mg/kg active drug, PO, BID×14, dosed as Compound 74): 67%
- IC50 (VEGFR): 0.074 µM
- AUC ([1]; IV: 1 mg/kg): AUC = 4.1 μg-hr/kg
- ER ([1]; IV: 1 mg/kg): ER = 20%
- AUC ([1]; Oral: 10 mg/kg): AUC = 7.6 μg-hr/kg
- F ([1]; Oral: 10 mg/kg): F = 38%
- clearance ([1]; male, plasma, IV: 1 mg/kg): 0.528 L/h/kg
- half-life ([1]; male, plasma, IV: 1 mg/kg): 4.6 h
- Vd ([1]; male, plasma, IV: 1 mg/kg, read-out: Vz): 3.2 L/kg
- Cmax ([1]; male, plasma, Oral: 10 mg/kg): 0.26 µg/mL
- IC50 (Tie2): 0.001 µM
- IC50 (Hck): 0.026 µM
- disease course by the end of the study ([2]; rat CIA, 10 mg/kg PO): induced disease regression
- parameters associated with the disease model ([2]; rat CIA, 0.3, 1, 3 or 10 mg/kg PO): dose-dependently improved all of the parameters
- ED50 ([2]; rat CIA, read-out: apparent ED50, ankle diameter): 1.5 mg/kg
- ED50 ([2]; rat CIA, read-out: apparent ED50, histopathology): 3 mg/kg
- IC50 (Arg): 0.01 µM
- IC50 (CYP2D6): 3 µM
- IC50 (CYP2C9): 5 µM
- inhibition of bFGF-induced angiogenesis (matrigel hemoglobin) ([3]; mice, 100 mg/kg active drug, p<0.05): 72%
- bFGF-induced angiogenesis, dose response ([3]; mice, 10, 30 or 100 mg/kg active drug): inhibited bFGF-induced angiogenesis in a dose-dependent manner
